What was measured:
GPRC6A [1] = molecular target: T1, GPRC6A (Mus musculus, UniProt Q8K4Z6); test: phospho-ERK activation in HEK-293 cells transfected with GPRC6A (immunoblot); format: cell-based; set-up: expressed in transfected cells; host or cells: HEK-293; conditions: for inhibition of testosterone stimulated GPRC6A-mediated activation of phospho-ERK: 10 μM PD89059, 50 μM Ly294002, 2 μM U73122, 10 μM PP-1; for block of GPRC6A-mediated extracellular testosterone stimulated signaling: either phospho-ERK or SRE-luciferase as read-outs
T1 sequence (Q8K4Z6 21-928): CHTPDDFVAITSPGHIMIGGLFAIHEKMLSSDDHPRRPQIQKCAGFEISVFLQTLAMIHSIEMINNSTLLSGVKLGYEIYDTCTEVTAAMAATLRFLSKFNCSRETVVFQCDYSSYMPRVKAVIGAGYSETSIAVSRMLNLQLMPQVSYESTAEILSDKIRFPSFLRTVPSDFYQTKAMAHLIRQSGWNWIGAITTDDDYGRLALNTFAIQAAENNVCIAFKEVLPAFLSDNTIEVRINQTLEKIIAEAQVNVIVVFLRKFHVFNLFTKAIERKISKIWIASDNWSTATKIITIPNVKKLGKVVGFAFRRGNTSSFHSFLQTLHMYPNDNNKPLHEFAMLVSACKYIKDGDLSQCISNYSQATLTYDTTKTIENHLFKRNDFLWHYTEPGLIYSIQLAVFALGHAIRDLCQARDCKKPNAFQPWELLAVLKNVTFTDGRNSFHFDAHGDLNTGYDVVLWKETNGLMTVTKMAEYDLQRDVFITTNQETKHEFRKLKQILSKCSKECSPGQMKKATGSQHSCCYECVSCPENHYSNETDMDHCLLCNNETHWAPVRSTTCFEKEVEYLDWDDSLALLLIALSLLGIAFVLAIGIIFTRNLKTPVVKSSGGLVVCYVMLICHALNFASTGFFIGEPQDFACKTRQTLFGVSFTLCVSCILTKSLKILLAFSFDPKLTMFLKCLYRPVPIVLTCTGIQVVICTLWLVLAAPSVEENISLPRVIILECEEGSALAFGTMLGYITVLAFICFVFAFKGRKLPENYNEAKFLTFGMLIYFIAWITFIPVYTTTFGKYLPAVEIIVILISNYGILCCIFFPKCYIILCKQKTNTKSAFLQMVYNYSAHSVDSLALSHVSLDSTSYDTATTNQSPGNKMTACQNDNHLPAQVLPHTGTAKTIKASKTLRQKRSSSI
Description: (§1) Equal amounts of lysates were subjected to 10% SDS-PAGE, and phospho-ERK1/2 levels were determined by immunoblotting using antiphospho-ERK1/2 mitogen-activated protein kinase antibody (Cell Signaling Technology). […] An anti-peptide antibody was raised in a rabbit against a peptide ([…] (SEQ ID NO: 27)) corresponding to a sequence in the extracellular domain of mouse GPRC6A (in exon 1 of mouse GPRC6A gene) produced by Abgent (San Diego, Calif.). For phospho-ERK, the phospho-ERK1/2 levels were determined by immunoblotting using anti-phospho-ERK1/2 mitogen-activated protein kinase antibody (Cell Signaling Technology). Urinary β2-microglobulin was detected by rabbit polyclonal anti-β2-microglobulin antibody (Abcam Inc.). For aromatase expression analysis, the rabbit polyclonal anti-aromatase antibody (Abcam Inc.) and goat anti-rabbit IgG HRP secondary antibody (Santa Cruz Biotechnology Inc.) were used. Mouse anti-Actin antibody (Santa Cruz Biotechnology Inc.) was used for control protein loading.

GPRC6A [2] = molecular target: T1, GPRC6A; set-up: expressed in transfected cells; conditions: in vitro; cited from earlier work
osteoblastic cells = conditions: 10 nM; cited from earlier work
[3] = system: LNCaP prostate cancer cell line; conditions: 10 nM, within minutes; cited from earlier work
HEK-293 cells = test: phospho-ERK in non-transfected HEK-293 control cells; format: cell-based, human; conditions: control HEK293, no GPRC6A
Description: as §1

[4] = molecular target: T2, calcium sensing receptor (CASR) (Rattus norvegicus, UniProt P48442); test: phospho-ERK in HEK-293 cells transfected with calcium sensing receptor; format: cell-based; conditions: HEK293 transfected with CASR
T2 construct: expressed in transfected cells; host or cells: HEK-293
T2 sequence (P48442 20-1079): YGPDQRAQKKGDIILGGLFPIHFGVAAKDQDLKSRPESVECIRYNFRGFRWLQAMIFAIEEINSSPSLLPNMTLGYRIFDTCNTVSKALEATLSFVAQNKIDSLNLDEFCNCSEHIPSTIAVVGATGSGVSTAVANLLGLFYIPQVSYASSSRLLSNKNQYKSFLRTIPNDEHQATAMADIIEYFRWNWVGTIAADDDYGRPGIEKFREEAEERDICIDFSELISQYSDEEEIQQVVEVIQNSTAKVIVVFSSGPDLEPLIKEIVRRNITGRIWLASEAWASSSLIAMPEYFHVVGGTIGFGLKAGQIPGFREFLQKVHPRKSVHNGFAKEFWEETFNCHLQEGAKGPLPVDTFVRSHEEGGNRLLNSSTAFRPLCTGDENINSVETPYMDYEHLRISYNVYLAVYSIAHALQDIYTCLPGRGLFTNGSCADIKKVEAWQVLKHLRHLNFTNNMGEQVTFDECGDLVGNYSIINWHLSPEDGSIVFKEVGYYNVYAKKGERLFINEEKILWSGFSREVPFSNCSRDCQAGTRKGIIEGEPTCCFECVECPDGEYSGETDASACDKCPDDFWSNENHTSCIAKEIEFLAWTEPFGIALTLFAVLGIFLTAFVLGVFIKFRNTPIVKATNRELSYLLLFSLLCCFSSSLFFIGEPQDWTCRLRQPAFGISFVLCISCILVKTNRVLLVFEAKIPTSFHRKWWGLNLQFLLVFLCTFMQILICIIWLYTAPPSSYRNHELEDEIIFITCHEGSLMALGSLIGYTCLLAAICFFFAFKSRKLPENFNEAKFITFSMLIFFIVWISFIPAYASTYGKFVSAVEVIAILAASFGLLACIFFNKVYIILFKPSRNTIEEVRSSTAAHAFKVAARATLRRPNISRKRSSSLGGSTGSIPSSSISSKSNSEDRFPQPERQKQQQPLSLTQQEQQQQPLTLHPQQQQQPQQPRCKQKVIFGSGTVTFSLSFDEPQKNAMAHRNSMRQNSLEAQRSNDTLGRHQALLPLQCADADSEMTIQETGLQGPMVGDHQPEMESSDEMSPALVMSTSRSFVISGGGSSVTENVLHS
Description: as §1

GPRC6A [5] = molecular target: T1, GPRC6A; test: SRE-luciferase reporter in HEK-293 cells co-transfected with pcDNA3.mGPRC6A; format: cell-based; set-up: expressed in transfected cells; host or cells: HEK-293; conditions: for inhibition of R1881 stimulated GPRC6A-mediated activation of luciferase: SRE-luciferase
Description: HEK-293 cells were co-transfected with pcDNA3.mGPRC6A and SRE-luciferase reporter gene plasmid. […] Luciferase activity was assessed after 6 h of stimulation. The luciferase activity in cell extracts was measured using the luciferase assay system (Promega) following the manufacturer's protocol using a BG-luminometer (Gem Biomedical, Inc., Hamden, Conn.).

GPRC6A [6] = molecular target: T1, GPRC6A; test: phospho-Src and phospho-Raf-1 western blot, GPRC6A-mediated; format: cell-based; set-up: expressed in transfected cells
Description: Several physiological processes arising as a result of the rapid action of the Src-Ras-ERK signaling pathway in steroids non-genomic action also have been reported. To define the role of GPRC6A in androgen-mediated cell signaling activation, we examine the Src and Raf-1 are involved in GPRC6A-mediated androgen stimulated intercellular signaling pathway.

[7] = system: bone marrow stromal cells (BMSC); test: phospho-ERK in bone marrow stromal cells from wild-type and GPRC6A-/- mice; format: cell-based, mouse
Description: The femurs and tibias from 8-week-old wild-type and GPRC6A^−/− mice were dissected, the ends of the bones were cut, and marrow was flushed out with 2 mL of ice-cold a-MEM containing 10% FBS using a needle and syringe. A suspension of bone marrow cells was obtained by repeated aspiration of the cell preparation through a 22-gauge needle, and nucleated cells were counted with a hemocytometer. Cells were seeded into 6-well plates at a density of 3×10^7 cells/mL and cultured for three days in a-MEM supplemented with 10% FBS, 100 kU/L of sodium penicillin G and 100 mg/L of streptomycin sulfate in a humidified incubator with 5% CO2 and 95% air at a temperature of 37° C. On day 3, all nonadherent cells were then removed with the first medium change and then the adherent cells (representing bone marrow-derived mesenchymal stem cells, BMSCs) were grown for additional periods of up 3 days in the same medium. After overnight quiescence, the cells were stimulated for 5 minutes by testosterone and p-estradiol at the concentrations as indicated.

[8] = HEK-293 cells transfected with GPRC6A
[9] = BMSC from GPRC6A-/- mice, testosterone up to 80 nM

Molecule: pertussis toxin
- block of testosterone and β-estradiol stimulated activation of phospho-ERK (GPRC6A [1]; 100 ng/ml PTx, stimuli at 50 nM): significantly blocked

Molecule: osteocalcin
- functional responses of GPRC6A to extracellular calcium (GPRC6A [2]): enhance the functional responses of GPRC6A to extracellular calcium

Molecule: C[C@]12CCC(=O)C[C@@H]1CC[C@@H]1[C@@H]2CC[C@]2(C)[C@@H](O)CC[C@@H]12 [DHT]
- Akt activity (osteoblastic cells): stimulation of Akt activity

Molecule: C[C@]1(O)CC[C@H]2[C@@H]3CCC4=CC(=O)CCC4=C3C=C[C@@]21C [R1881]
- Src kinase activity [3]: stimulation of Src kinase activity
- GPRC6A-mediated activation of phospho-ERK (GPRC6A [1]; [8]): stimulated extracellular signal-regulated kinase phosphorylation (phospho-ERK) in a dose-dependent fashion
- phospho-ERK response (HEK-293 cells): did not responded
- phospho-ERK response [4]: did not responded
- GPRC6A mediated activation of luciferase (GPRC6A [5]; SRE-luciferase reporter, HEK-293): stimulated the GPRC6A mediated activation of luciferase
- GPRC6A-mediated activation of phospho-Raf-1 (GPRC6A [6]): stimulated
- GPRC6A-mediated activation of phospho-Src (GPRC6A [6]): stimulated GPRC6A-mediated activation of phospho-Src

Molecule: CC(=O)[C@H]1CC[C@H]2[C@@H]3CCC4=CC(=O)CC[C@]4(C)[C@H]3CC[C@]12C [progesterone]
- GPRC6A-mediated activation of phospho-ERK (GPRC6A [1]; concentrations up to 80 nM): no effect

Molecule: Cc1ccc(-c2nn(C(C)(C)C)c3ncnc(N)c23)cc1 [PP-1]
- inhibition of testosterone stimulated GPRC6A-mediated activation of phospho-ERK (GPRC6A [1]): inhibited
- block of GPRC6A-mediated extracellular testosterone stimulated signaling (GPRC6A [1]): blocked
- inhibition of R1881 stimulated GPRC6A-mediated activation of luciferase (GPRC6A [5]): inhibited

Molecule: C=C1/C(=C\C=C2/CCC[C@]3(C)[C@@H]([C@H](C)CCCC(C)(C)O)CC[C@@H]23)C[C@@H](O)C[C@@H]1O [1,25(OH)2Vit D3]
- GPRC6A-mediated activation of phospho-ERK (GPRC6A [1]; [8]): stimulated the GPRC6A-mediated activation of phospho-ERK

Molecule: Cn1cc(C2=C(c3cn(CCCSC(=N)N)c4ccccc34)C(=O)NC2=O)c2ccccc21 [Ro31-8220]
- block of GPRC6A-mediated extracellular testosterone stimulated signaling (GPRC6A [1]): blocked
- inhibition of R1881 stimulated GPRC6A-mediated activation of luciferase (GPRC6A [5]): inhibited

Molecule: C[C@]12CC[C@@H]3c4ccc(O)cc4CC[C@H]3[C@@H]1CC[C@@H]2O [17p-estradiol]
- GPRC6A-mediated activation of phospho-ERK (GPRC6A [1]; [8]): stimulated the GPRC6A-mediated activation of phospho-ERK
- concentration required to activate GPRC6A (phosphorylation of ERK) (GPRC6A [1]; [8]): 60 to 80 nM

Molecule: COc1ccc2c(c1)CC[C@@H]1[C@@H]2CC[C@]2(C)[C@@H](NCCCCCCN3C(=O)C=CC3=O)CC[C@@H]12 [U73122]
- inhibition of testosterone stimulated GPRC6A-mediated activation of phospho-ERK (GPRC6A [1]): inhibited

Molecule: CC(C)CCC[C@@H](C)[C@H]1CC[C@H]2[C@@H]3CC=C4C[C@@H](O)CC[C@]4(C)[C@H]3CC[C@]12C [cholesterol]
- GPRC6A-mediated activation of phospho-ERK (GPRC6A [1]; [8]): stimulated the GPRC6A-mediated activation of phospho-ERK

Molecule: C[C@]12CC[C@H](O)CC1=CC[C@@H]1[C@@H]2CC[C@]2(C)C(=O)CC[C@@H]12 [DHEA, Dehydroandrosterone]
- GPRC6A-mediated activation of phospho-ERK (GPRC6A [1]; [8]): stimulated the GPRC6A-mediated activation of phospho-ERK

Molecule: [Ca+2] [extracellular calcium, calcium]
- stimulation of phospho-ERK in BMSC [7, 9]: failed to responds
- stimulation of phospho-ERK in BMSC ([7]; BMSC from wild-type mice): stimulation of ERK phosphorylation

Molecule: COc1cccc([C@@H](C)NCCCc2ccccc2Cl)c1 [NPS-R568]
- stimulation of phospho-ERK in BMSC [7, 9]: failed to responds
- stimulation of phospho-ERK in BMSC ([7]; BMSC from wild-type mice): stimulation of ERK phosphorylation

Molecule: COc1cccc(-c2cc(=O)c3ccccc3o2)c1N [PD89059]
- inhibition of testosterone stimulated GPRC6A-mediated activation of phospho-ERK (GPRC6A [1]): inhibited
- block of GPRC6A-mediated extracellular testosterone stimulated signaling (GPRC6A [1]): blocked
- inhibition of R1881 stimulated GPRC6A-mediated activation of luciferase (GPRC6A [5]): inhibited

From US20090142323A1, “METHODS FOR TREATING A DISORDER BY REGULATING GPRC6A” (priority 2007, published 2009)
